In the assay the test system is A549 cells. The assay is described as follows: In vitro toxicity analysis, viability after 3 days of treatment. The assay is classed as cell-based. The settings on record: incubated with treatment for 3 days. Here is the method:
Scale bar=200 nm. […] Cells were incubated with treatment for 5 days, and viability was assessed. […] Right lower panel: In vitro toxicity analysis of PGC-Cisplatin and cisplatin alone in A549 cells. Cells were incubated with treatment for 3 days, and viability was assessed.
PGC-Pax and PGC-Cisplatin nanoparticles are synthesized using a miniemulsion technique. Briefly, the polymer is added to dichloromethane, and the organic phase is dispersed via sonication into an aqueous phase, containing sodium dodecyl sulfate as a surfactant.

The term IC50 denotes the point on the concentration scale where inhibition reaches its midpoint. A higher IC50 goes with weaker potency in that assay.

`N.N.[Cl][Pt][Cl]` [cisplatin] returned an IC50 of 0.9273 µg/mL.

For the origin of these results see patent US10400064B2, “Glycerol-based polycarbonates” (TRUSTEES OF BOSTON UNIVERSITY, priority 2014, dated 2019).
